US6399654B1, “Biflavanoids and derivatives thereof as antiviral agents” (priority 1995, dated 2002)
≈ marks a conversion by molar mass, not a printed value. Where “and” joins values, the source holds several entries; their conditions need not be identical. Identical values can stand only once. Like-named read-outs stand apart in the source and are kept apart here.

Columns and labels:
[1] = system: Influenza A (H3N2) Beijing/32/92; assay: microbe, parasite or virus in culture; type: cell-based, influenza A virus; settings: Influenza A virus, MDCK; Influenza A (H3N2) Beijing/32/92; read-out: Neutral Red EC50
VZV = VZV plaque reduction assay in HFF cells
[2] = system: Respiratory Syncytial Virus; assay: microbe, parasite or virus in culture; type: cell-based; settings: human respiratory syncytial virus, MA104; read-out: Neutral Red EC50
Hepatitis B Virus (HBV) = assay: Inhibition of HBV replication in 2.2.15 cells, extracellular (virion) HBV DNA; settings: Hepatitis B virus, 216 h;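 note: extracellular virion HBV DNA in culture medium measured by slot blot hybridization with a 32P-labeled HBV probe, quantified against HBV DNA standards, after 9 days of daily dosing, compared with day 0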
Method: Test compounds were added daily for a nine continuous day period; the culture medium was collected and stored for analysis of extracellular (virion) HBV DNA after 0, 3, 6, and 9 days of treatment. The treated cells were lysed 24 hours following day 9 of treatment for the analysis of intracellular HBV genomic forms. The overall levels of HBV DNA (both extracellular and intracellular DNA) and the relative rate of HBV replication (intracellular DNA) were analyzed quantitatively. The analysis was performed using blot hybridization techniques and [^32P]-labeled HBV-specific probes. The HBV DNA levels were measured by comparison to known amounts of HBV DNA standards applied to every nitrocellulose membrane (gel or slot blot). An AMBIS beta scanner, which measures the radioactive decay of the hybridized probes directly from the nitrocellulose membranes, was used for the quantitative analysis. Standard curves, generated by multiple analyses, were used to correlate CPM measurements made by the beta scanner with relative levels of target HBV DNA. The levels of HBV virion DNA released into the culture medium were analyzed by a slot blot hybridization procedure. HBV DNA levels were then compared to those at day 0 to determine the effect of the test compound. A known positive drug was evaluated in parallel with test compounds in each test.
Determination of therapeutic concentrations (EC50 and EC90) and toxicity concentrations (IC50) were determined as previously described (90). Stock solutions of text drugs were prepared in DMSO. Culture medium was changed daily and analyzed for extracellular HBV DNA after nine days of continuous drug exposure. Extracellular HBV DNA was extracted from the culture media and analyzed by a slot blot hydridization technique, using a ^32P-labeled Eco RI HBV DNA fragment, as previously described (91), and quantitated via comparison to HBV standards on a nitrocellulose filter, using an AMBIS beta scanner. Toxicity was determined by measuring inhibition of neutral red dye uptake. […] Effective concentration values for individual agents are the mean of six cultures per concentration point. Toxicity values are the mean of three cultures per concentration point.

[3] = system: Parainfluenza Type 3 Virus; assay: organism not typed; type: cell-based; settings: MA104, read-out: Neutral Red EC50
[4] = system: African green monkey kidney (MA-104) cells
HIV-1 RT = molecular target: T1, HIV-1 RT (Human immunodeficiency virus type 1 group M subtype B, UniProt P03366); assay: Anti-HIV-1 RT assay (recombinant enzyme); type: biochemical
T1 construct: made in house; host or cells: Escherichia coli

[5] = system: Influenza A (H1N1) Texas/36/91; assay: microbe, parasite or virus in culture; type: cell-based, influenza A virus; settings: Influenza A virus, MDCK; Influenza A (H1N1) Texas/36/91; read-out: CPE Inhibition EC50
HSV-2 = HSV-2 CPE inhibition in HFF cells
in vitro [6] = settings: African green monkey, Neutral Red IC50 (cytotoxic)
Influenza B Panama/45/90 [7] = assay: microbe, parasite or virus in culture; type: cell-based; settings: Influenza B virus, MDCK, read-out: Neutral Red EC50
in vitro [8] = settings: dog, Neutral Red IC50 (cytotoxic)
Measles Virus [9] = assay: Measles virus neutral red dye uptake in BSC-1 cells; type: cell-based; settings: Measles morbillivirus, BSC-1
Influenza B Panama/45/90 [10] = assay: microbe, parasite or virus in culture; type: cell-based; settings: Influenza B virus, MDCK, read-out: CPE Inhibition EC50
Adenovirus Type 5 [11] = assay: Adenovirus type 5 neutral red dye uptake in A549 cells; type: cell-based; settings: Human mastadenovirus C, A549, read-out: Neutral Red EC50
HSV-1 = HSV-1 CPE inhibition in HFF cells
in vitro [12] = settings: human
[13] = system: Influenza A (H3N2) Beijing/32/92; assay: microbe, parasite or virus in culture; type: cell-based, influenza A virus; settings: Influenza A virus, MDCK; Influenza A (H3N2) Beijing/32/92; read-out: CPE Inhibition EC50
in vitro [14] = settings: African green monkey
Adenovirus Type 5 [15] = assay: microbe, parasite or virus in culture; type: cell-based; settings: Human mastadenovirus C, A549, read-out: CPE Inhibition EC50
HCMV = HCMV CPE inhibition in HFF cells
HIV-1 (strain LAV-1) = assay: microbe, parasite or virus in culture; type: cell-based
in vitro [16] = settings: dog
in vitro [17] = settings: human; remark: listed apart in the source
[18] = system: Influenza A (H1N1) Texas/36/91; assay: microbe, parasite or virus in culture; type: cell-based, influenza A virus; settings: Influenza A virus, MDCK; Influenza A (H1N1) Texas/36/91; read-out: Neutral Red EC50
[19] = system: Parainfluenza Type 3 Virus; assay: organism not typed; type: cell-based; settings: MA104; Parainfluenza Type 3 Virus; read-out: CPI Inhibition EC50
Measles Virus [20] = assay: microbe, parasite or virus in culture; type: cell-based; settings: Measles morbillivirus, BSC-1; Measles Virus; read-out: CPI Inhibition EC50

Q: With `O=c1cc(-c2ccc(Oc3c(O)cc4oc(-c5ccc(O)cc5)cc(=O)c4c3O)cc2)oc2cc(O)cc(O)c12` [Hinokiflavone (4), hinokiflavone] as the compound, how does the EC50 [1] read?
A: The EC50 was 1.9 µg/mL (≈ 3.53 µM).

Q: What about the “VZV SI (CC50/EC50)” value (VZV; HFF Cells) of the same compound?
A: Its value is under 4.2.

Q: And the EC50 (VZV; Human alphaherpesvirus 3, HFF, read-out: VZV Plaque Reduction EC50)?
A: Its EC50 is over 4 µg/mL.

Q: What about the EC50 [2] of the same compound?
A: Its EC50 is over 3.2 µg/mL.

Q: What about the EC50 (Hepatitis B Virus (HBV); read-out: EC50 (50% effective dose), HBV Virion, 2.2.15 cells, extracellular (virion) HBV DNA, 9 days treatment) of the same compound?
A: The EC50 was over 100 µM.

Q: What about the EC90 (Hepatitis B Virus (HBV); read-out: EC90 (90% effective dose), HBV Virion, 2.2.15 cells, extracellular (virion) HBV DNA, 9 days treatment) of the same compound?
A: The EC90 was over 100 µM.

Q: What about the EC50 [3] of the same compound?
A: The EC50 was 5 µg/mL (≈ 9.29 µM).

Q: And the “Neutral Red IC50 (cytotoxic)” value [4]?
A: The value was 7 µg/mL.

Q: What about the IC50 (HIV-1 RT; Anti-HIV-1 RT IC50, values in parentheses or in words) of the same compound?
A: Its IC50 is 62 µM.

Q: What about the IC50 (HIV-1 RT; HIV-1 RT IC50 (50% inhibition dose)) of the same compound?
A: The IC50 was 65.4 µM and 62.6 µM.

Q: What about the inhibition at 200 µg/mL (HIV-1 RT; read-out: Anti-HIV-1 RT % Inhibition at 200 μg/ml) of the same compound?
A: The inhibition at 200 µg/mL was 89%.

Q: And the EC50 [5]?
A: Its EC50 is over 1 µg/mL.

Q: What about the “HSV-2 SI (CC50/EC50)” value (HSV-2; HFF Cells) of the same compound?
A: The value was under 319.

Q: What about the EC50 (HSV-2; Human alphaherpesvirus 2, HFF, read-out: HSV-2 CPE Inhibition EC50) of the same compound?
A: Its EC50 is over 20 µg/mL.

Q: What about the IC50 (in vitro [6]) of the same compound?
A: The IC50 was 6 µg/mL (≈ 11.1 µM).

Q: And the EC50 (Influenza B Panama/45/90 [7])?
A: The EC50 was 1.9 µg/mL (≈ 3.53 µM).

Q: What about the IC50 (in vitro [8]; Influenza A (H1N1) test) of the same compound?
A: Its IC50 is 2 µg/mL (≈ 3.71 µM).

Q: And the IC50 (in vitro [8]; Influenza A (H3N2) test)?
A: Its IC50 is 2.2 µg/mL (≈ 4.09 µM).

Q: What about the IC50 (in vitro [8]; Influenza B test) of the same compound?
A: The IC50 was 2 µg/mL (≈ 3.71 µM).

Q: What about the EC50 (Measles Virus [9]) of the same compound?
A: The EC50 was under 5 µg/mL.

Q: What about the EC50 (Influenza B Panama/45/90 [10]) of the same compound?
A: The EC50 was over 1 µg/mL.

Q: And the EC50 (Adenovirus Type 5 [11])?
A: Its EC50 is 19 µg/mL (≈ 35.3 µM).

Q: And the “HSV-1 SI (CC50/EC50)” value (HSV-1; HFF Cells)?
A: Its value is under 3.9.

Q: What about the EC50 (HSV-1; Human alphaherpesvirus 1, HFF, read-out: HSV-1 CPE Inhibition EC50) of the same compound?
A: Its EC50 is over 20 µg/mL.

Q: What about the CC50 at 14 days (in vitro [12]; HCMV CPE Inhibition CC50) of the same compound?
A: Its CC50 at 14 days is 2.6 µg/mL (≈ 4.83 µM).

Q: What about the CC50 at 3 days (in vitro [12]; HSV-1 CPE Inhibition CC50) of the same compound?
A: The CC50 at 3 days was 77.7 µg/mL (≈ 144 µM).

Q: What about the CC50 at 3 days (in vitro [12]; HSV-2 CPE Inhibition CC50) of the same compound?
A: Its CC50 at 3 days is 77.5 µg/mL (≈ 144 µM).

Q: What about the CC50 at 10 days (in vitro [12]; VZV Plaque Reduction CC50) of the same compound?
A: The CC50 at 10 days was 16.8 µg/mL (≈ 31.2 µM).

Q: And the EC50 [13]?
A: The EC50 was over 3.2 µg/mL.

Q: What about the “toxicity against uninfected PHA-stimulated human PBM cells (in words)” value (human PBM cells) of the same compound?
A: Its value is “high toxicity”.

Q: What about the IC50 (in vitro [14]; CPE Inhibition IC50 (cytotoxic), Respiratory Syncytial Virus test) of the same compound?
A: Its IC50 is 2.5 µg/mL (≈ 4.64 µM).

Q: What about the IC50 (in vitro [14]; CPI Inhibition IC50 (cytotoxic), Parainfluenza Type 3 Virus test) of the same compound?
A: Its IC50 is 1 µg/mL (≈ 1.86 µM).

Q: What about the EC50 (Adenovirus Type 5 [15]) of the same compound?
A: Its EC50 is over 10 µg/mL.

Q: What about the “HCMV SI (CC50/EC50)” value (HCMV; HFF Cells) of the same compound?
A: The value was under 3.2.

Q: What about the EC50 (HCMV; Human betaherpesvirus 5, HFF, read-out: HCMV CPE Inhibition EC50) of the same compound?
A: Its EC50 is over 0.8 µg/mL.

Q: What about the EC50 (HIV-1 (strain LAV-1); Human immunodeficiency virus 1, PBMC, human PBM cells infected with HIV-1 (strain LAV), read-out: Ant-HIV-1 in PBM cells EC50) of the same compound?
A: Its EC50 is 4.1 µM.

Q: And the “Selective Index (SI)” value (HIV-1 (strain LAV-1); PBM cells)?
A: Its value is under 1.

Q: What about the IC50 (in vitro [16]; CPE Inhibition IC50 (50% cell inhibitory (cytotoxic) concentration), Influenza A (H1N1) test) of the same compound?
A: The IC50 was 1.4 µg/mL (≈ 2.6 µM).

Q: And the IC50 (in vitro [16]; CPE Inhibition IC50 (cytotoxic), Influenza A (H3N2) test)?
A: The IC50 was 1.3 µg/mL (≈ 2.41 µM).

Q: And the IC50 (in vitro [16]; CPE Inhibition IC50 (cytotoxic), Influenza B test)?
A: Its IC50 is 1.2 µg/mL (≈ 2.23 µM).

Q: And the IC50 (in vitro [17])?
A: Its IC50 is 9.1 µM.

Q: And the EC50 [18]?
A: Its EC50 is 1.8 µg/mL (≈ 3.34 µM).

Q: What about the EC50 [19] of the same compound?
A: The EC50 was over 1 µg/mL.

Q: And the EC50 (Measles Virus [20])?
A: The EC50 was under 3 µg/mL.
